{"source": "patent US20150209315A1", "about": "(Cumberland Pharmaceuticals, priority 2009, published 2015)", "test_system": "post-operative adult patients", "assay": "Example 1: patient self-assessment of pain, VAS with movement", "assay_type": "in vivo, human", "set-up": "key to VAS Score measured with Movement (median): VAS 0-10: 0 = no pain, 10 = intense pain", "experimental": "Pain was measured by the patient's self-assessment using a Visual Analog Scale (VAS) from 0-10 with 0 being no pain and 10 being intense pain. This was measured both at rest and with movement. […] […] To account for the missing pain assessments, two missing value approaches as described in the statistical analysis plan were used to impute values. To determine the difference in overall pain at differing time-points, the area under the VAS pain curve during the first 24 hours, between 6 and 24 hours and between 12 and 24 hours were analyzed."}
{"smiles": "CC(C)Cc1ccc(C(C)C(=O)O)cc1", "note": "(stereo not shown) [Ibuprofen, 2-(4-isobutylphenyl) propionic acid]", "values": [{"measurement": "VAS Score measured with Movement (median)", "setting": "400 mg, EEP, 1-Hour", "result": 7.5}, {"measurement": "VAS Score measured with Movement, % Reduction vs Placebo", "setting": "400 mg, EEP, 1-Hour", "result": 6.2, "unit": "%"}, {"measurement": "VAS Score measured with Movement (median)", "setting": "400 mg, EEP, 2-Hour", "result": 7.2}, {"measurement": "VAS Score measured with Movement, % Reduction vs Placebo", "setting": "400 mg, EEP, 2-Hour", "result": "−1.4", "unit": "%"}, {"measurement": "VAS Score measured with Movement (median)", "setting": "400 mg, EEP, 3-Hour", "result": 6.2}, {"measurement": "VAS Score measured with Movement, % Reduction vs Placebo", "setting": "400 mg, EEP, 3-Hour", "result": "−3.3", "unit": "%"}, {"measurement": "VAS Score measured with Movement (median)", "setting": "400 mg, EEP, 6-Hour", "result": 5.7}, {"measurement": "VAS Score measured with Movement, % Reduction vs Placebo", "setting": "400 mg, EEP, 6-Hour", "result": "−14.0", "unit": "%"}, {"measurement": "VAS Score measured with Movement (median)", "setting": "400 mg, EEP, 9-Hour", "result": 4.8}, {"measurement": "VAS Score measured with Movement, % Reduction vs Placebo", "setting": "400 mg, EEP, 9-Hour", "result": 4.0, "unit": "%"}, {"measurement": "VAS Score measured with Movement (median)", "setting": "400 mg, EEP, 12-Hour", "result": 4.5}, {"measurement": "VAS Score measured with Movement, % Reduction vs Placebo", "setting": "400 mg, EEP, 12-Hour", "result": 10.0, "unit": "%"}, {"measurement": "VAS Score measured with Movement (median)", "setting": "400 mg, EEP, 15-Hour", "result": 4.0}, {"measurement": "VAS Score measured with Movement, % Reduction vs Placebo", "setting": "400 mg, EEP, 15-Hour", "result": 20.0, "unit": "%"}, {"measurement": "VAS Score measured with Movement (median)", "setting": "400 mg, EEP, 18-Hour", "result": 4.3}, {"measurement": "VAS Score measured with Movement, % Reduction vs Placebo", "setting": "400 mg, EEP, 18-Hour", "result": 14.0, "unit": "%"}, {"measurement": "VAS Score measured with Movement (median)", "setting": "400 mg, EEP, 21-Hour", "result": 4.0}, {"measurement": "VAS Score measured with Movement, % Reduction vs Placebo", "setting": "400 mg, EEP, 21-Hour", "result": 20.0, "unit": "%"}, {"measurement": "VAS Score measured with Movement (median)", "setting": "400 mg, EEP, 24-Hour", "result": 5.0}, {"measurement": "VAS Score measured with Movement, % Reduction vs Placebo", "setting": "400 mg, EEP, 24-Hour", "result": "−13.6", "unit": "%"}, {"measurement": "VAS Score measured with Movement (median)", "setting": "400 mg, EEP, 27-Hour", "result": 4.6}, {"measurement": "VAS Score measured with Movement, % Reduction vs Placebo", "setting": "400 mg, EEP, 27-Hour", "result": "−2.2", "unit": "%"}, {"measurement": "VAS Score measured with Movement (median)", "setting": "400 mg, EEP, 30-Hour", "result": 4.0}, {"measurement": "VAS Score measured with Movement, % Reduction vs Placebo", "setting": "400 mg, EEP, 30-Hour", "result": 2.4, "unit": "%"}, {"measurement": "VAS Score measured with Movement (median)", "setting": "400 mg, EEP, 33-Hour", "result": 3.9}, {"measurement": "VAS Score measured with Movement, % Reduction vs Placebo", "setting": "400 mg, EEP, 33-Hour", "result": "−2.6", "unit": "%"}, {"measurement": "VAS Score measured with Movement (median)", "setting": "400 mg, EEP, 36-Hour", "result": 3.6}, {"measurement": "VAS Score measured with Movement, % Reduction vs Placebo", "setting": "400 mg, EEP, 36-Hour", "result": 7.7, "unit": "%"}, {"measurement": "VAS Score measured with Movement (median)", "setting": "400 mg, EEP, 39-Hour", "result": 3.1}, {"measurement": "VAS Score measured with Movement, % Reduction vs Placebo", "setting": "400 mg, EEP, 39-Hour", "result": 8.8, "unit": "%"}, {"measurement": "VAS Score measured with Movement (median)", "setting": "400 mg, EEP, 42-Hour", "result": 3.3}, {"measurement": "VAS Score measured with Movement, % Reduction vs Placebo", "setting": "400 mg, EEP, 42-Hour", "result": 5.7, "unit": "%"}, {"measurement": "VAS Score measured with Movement (median)", "setting": "400 mg, EEP, 45 Hour", "result": 3.3}, {"measurement": "VAS Score measured with Movement, % Reduction vs Placebo", "setting": "400 mg, EEP, 45 Hour", "result": "−6.5", "unit": "%"}, {"measurement": "VAS Score measured with Movement (median)", "setting": "400 mg, EEP, 48-Hour", "result": 3.2}, {"measurement": "VAS Score measured with Movement, % Reduction vs Placebo", "setting": "400 mg, EEP, 48-Hour", "result": "−33.3", "unit": "%"}, {"measurement": "VAS Score measured with Movement (median)", "setting": "400 mg, ITT, 1-Hour", "result": 7.5}, {"measurement": "VAS Score measured with Movement, % Reduction vs Placebo", "setting": "400 mg, ITT, 1-Hour", "result": 6.2, "unit": "%"}, {"measurement": "VAS Score measured with Movement (median)", "setting": "400 mg, ITT, 2-Hour", "result": 7.4}, {"measurement": "VAS Score measured with Movement, % Reduction vs Placebo", "setting": "400 mg, ITT, 2-Hour", "result": "−1.4", "unit": "%"}, {"measurement": "VAS Score measured with Movement (median)", "setting": "400 mg, ITT, 3-Hour", "result": 6.3}, {"measurement": "VAS Score measured with Movement, % Reduction vs Placebo", "setting": "400 mg, ITT, 3-Hour", "result": 0.0, "unit": "%"}, {"measurement": "VAS Score measured with Movement (median)", "setting": "400 mg, ITT, 6-Hour", "result": 5.7}, {"measurement": "VAS Score measured with Movement, % Reduction vs Placebo", "setting": "400 mg, ITT, 6-Hour", "result": 0.0, "unit": "%"}, {"measurement": "VAS Score measured with Movement (median)", "setting": "400 mg, ITT, 9-Hour", "result": 4.7}, {"measurement": "VAS Score measured with Movement, % Reduction vs Placebo", "setting": "400 mg, ITT, 9-Hour", "result": 9.6, "unit": "%"}, {"measurement": "VAS Score measured with Movement (median)", "setting": "400 mg, ITT, 12-Hour", "result": 4.5}, {"measurement": "VAS Score measured with Movement, % Reduction vs Placebo", "setting": "400 mg, ITT, 12-Hour", "result": 10.0, "unit": "%"}, {"measurement": "VAS Score measured with Movement (median)", "setting": "400 mg, ITT, 15-Hour", "result": 3.9}, {"measurement": "VAS Score measured with Movement, % Reduction vs Placebo", "setting": "400 mg, ITT, 15-Hour", "result": 22.0, "unit": "%"}, {"measurement": "VAS Score measured with Movement (median)", "setting": "400 mg, ITT, 18-Hour", "result": 4.3}, {"measurement": "VAS Score measured with Movement, % Reduction vs Placebo", "setting": "400 mg, ITT, 18-Hour", "result": 14.0, "unit": "%"}, {"measurement": "VAS Score measured with Movement (median)", "setting": "400 mg, ITT, 21-Hour", "result": 4.1}, {"measurement": "VAS Score measured with Movement, % Reduction vs Placebo", "setting": "400 mg, ITT, 21-Hour", "result": 16.3, "unit": "%"}, {"measurement": "VAS Score measured with Movement (median)", "setting": "400 mg, ITT, 24-Hour", "result": 4.6}, {"measurement": "VAS Score measured with Movement, % Reduction vs Placebo", "setting": "400 mg, ITT, 24-Hour", "result": "−2.2", "unit": "%"}, {"measurement": "VAS Score measured with Movement (median)", "setting": "400 mg, ITT, 27 Hour", "result": 4.6}, {"measurement": "VAS Score measured with Movement, % Reduction vs Placebo", "setting": "400 mg, ITT, 27 Hour", "result": "−4.5", "unit": "%"}, {"measurement": "VAS Score measured with Movement (median)", "setting": "400 mg, ITT, 30-Hour", "result": 4.0}, {"measurement": "VAS Score measured with Movement, % Reduction vs Placebo", "setting": "400 mg, ITT, 30-Hour", "result": 0.0, "unit": "%"}, {"measurement": "VAS Score measured with Movement (median)", "setting": "400 mg, ITT, 33-Hour", "result": 3.8}, {"measurement": "VAS Score measured with Movement, % Reduction vs Placebo", "setting": "400 mg, ITT, 33-Hour", "result": 0.0, "unit": "%"}, {"measurement": "VAS Score measured with Movement (median)", "setting": "400 mg, ITT, 36-Hour", "result": 3.6}, {"measurement": "VAS Score measured with Movement, % Reduction vs Placebo", "setting": "400 mg, ITT, 36-Hour", "result": 10.0, "unit": "%"}, {"measurement": "VAS Score measured with Movement (median)", "setting": "400 mg, ITT, 39-Hour", "result": 3.1}, {"measurement": "VAS Score measured with Movement (median)", "setting": "400 mg, ITT, 42-Hour", "result": 3.3}, {"measurement": "VAS Score measured with Movement, % Reduction vs Placebo", "setting": "400 mg, ITT, 42-Hour", "result": 2.9, "unit": "%"}, {"measurement": "VAS Score measured with Movement (median)", "setting": "400 mg, ITT, 45-Hour", "result": 3.3}, {"measurement": "VAS Score measured with Movement, % Reduction vs Placebo", "setting": "400 mg, ITT, 45-Hour", "result": "−6.5", "unit": "%"}, {"measurement": "VAS Score measured with Movement (median)", "setting": "400 mg, ITT, 48-Hour", "result": 3.2}, {"measurement": "VAS Score measured with Movement, % Reduction vs Placebo", "setting": "400 mg, ITT, 48-Hour", "result": "−39.1", "unit": "%"}, {"measurement": "VAS Score measured with Movement (median)", "setting": "800 mg, EEP, 1-Hour", "result": 7.8}, {"measurement": "VAS Score measured with Movement, % Reduction vs Placebo", "setting": "800 mg, EEP, 1-Hour", "result": 2.5, "unit": "%"}]}
